Measurements published in the CheMixHub viscosity set.

Assay: xn = mol fraction of the nth substance listed

C1COCCO1 + CC(C)O
viscosity [mPa·s]
Conditions | 298.15 K | 303.15 K | 308.15 K | 313.15 K
101 kPa, x1 = 0.4 | 1.078 | – | – | –
101 kPa, x2 = 0.1382 | – | 0.9888 | 0.9165 | –
101 kPa, x2 = 0.2768 | – | 0.9414 | 0.8803 | –
101 kPa, x2 = 0.3911 | – | 0.9353 | 0.8656 | –
101 kPa, x2 = 0.4934 | – | 0.9403 | 0.8625 | –
101 kPa, x2 = 0.5928 | – | 0.9543 | 0.8778 | –
101 kPa, x2 = 0.6977 | – | 1.014 | 0.9221 | –
101 kPa, x2 = 0.7841 | – | 1.112 | 1.012 | –
101 kPa, x2 = 0.8535 | – | 1.259 | 1.128 | –
101 kPa, x2 = 0.929 | – | 1.47 | 1.308 | –
101.3 kPa, x1 = 0.038 | 1.821 | 1.578 | 1.38 | 1.218
101.3 kPa, x1 = 0.1103 | 1.479 | 1.312 | 1.17 | 1.039
101.3 kPa, x1 = 0.213 | 1.224 | 1.099 | 0.9913 | 0.8984
101.3 kPa, x1 = 0.3316 | 1.075 | 0.9775 | 0.887 | 0.8129
101.3 kPa, x1 = 0.3634 | 1.055 | 0.9613 | 0.8738 | 0.8044
101.3 kPa, x1 = 0.4318 | 1.014 | 0.9242 | 0.8492 | 0.7791
101.3 kPa, x1 = 0.5184 | 0.9926 | 0.91 | 0.835 | 0.7724
101.3 kPa, x1 = 0.6312 | 0.9873 | 0.9117 | 0.837 | 0.7769
101.3 kPa, x1 = 0.6592 | 0.9898 | 0.9161 | 0.8392 | 0.778
101.3 kPa, x1 = 0.787 | 1.048 | 0.9473 | 0.8747 | 0.8157
101.3 kPa, x1 = 0.891 | 1.101 | 1.01 | 0.9326 | 0.8715
101.3 kPa, x1 = 0.935 | 1.131 | 1.048 | 0.9724 | 0.8943
